Data taken from US20240279205A1, “NOVEL BENZIMIDAZOLE DERIVATIVE” (Carna Biosciences, Inc., priority 2020, published 2024).

Legend:
human STING (hSTING) = target: T1, human STING (hSTING) (Homo sapiens, UniProt Q86WV6); assay: Inhibition test of intracellular human STING (hSTING) pathway using SEAP reporter cells (HEK-Blue ISG), stimulation with Compound 3; type: cell-based; parameters: hSTING inhibitory activity: scale not given here; conditions: Compound 3 10 nM stimulation, 21 hours
T1 construct: host or cells: HEK-Blue ISG cells (HEK293-derived SEAP reporter line)
In short: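 IC50 derived by regressing inhibition rate against log compound concentration (0.1 to 10 μM final, added 1 h before agonist), with 0% and 100% set by wells without and with 10 nM Compound 3. SEAP colour reaction read after 21 h stimulation of HEK-Blue ISG reporter cells.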

[1] = system: STING activation (IFN-β production in THP-1 cells); assay: Human IFN-β production inhibition test by cGAMP stimulation in THP-1 cells; type: cell-based; parameters: IFN-β bioinhibitory activity: scale not given here; conditions: 2'3'-cGAMP transfection, 18 hours, IFN-β ELISA
In short: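 PMA-primed (100 nM, overnight) THP-1 cells pretreated 1 h with compound at 0.001 to 1 μM (0.1% DMSO), then transfected with 0.12 μg/well 2′3′-cGAMP and cultured 18 hours. Supernatant IFN-β measured by ELISA; IC50 by regression against log concentration, normalised to cGAMP-only (100%) and unstimulated (0%) controls.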

T1 sequence (Q86WV6 whole entry H232R): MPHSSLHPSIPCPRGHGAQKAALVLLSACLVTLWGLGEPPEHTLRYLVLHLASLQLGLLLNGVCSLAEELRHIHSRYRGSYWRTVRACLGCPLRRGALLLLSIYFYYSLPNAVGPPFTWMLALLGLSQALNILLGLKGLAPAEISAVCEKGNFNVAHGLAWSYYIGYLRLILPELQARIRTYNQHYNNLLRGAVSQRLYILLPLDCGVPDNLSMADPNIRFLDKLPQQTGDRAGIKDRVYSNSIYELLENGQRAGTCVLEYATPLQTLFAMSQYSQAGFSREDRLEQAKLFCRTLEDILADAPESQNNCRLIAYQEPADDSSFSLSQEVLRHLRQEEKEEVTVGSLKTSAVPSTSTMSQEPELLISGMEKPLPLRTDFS

| Compound | hSTING inhibitory activity (human STING (hSTING)) | IFN-β bioinhibitory activity [1] |
| --- | --- | --- |
| CCCn1c(Nc2c[nH]c3ccc(Cl)cc23)nc2cc(C(F)(F)F)ccc21 [Embodiment 212, N-(5-Chloro-1H-indol-3-yl)-1-propyl-5-(trifluoromethyl)-1H-benzo[d]imidazo-2-amine] | * * * | * * * |
| C=CCn1c(Nc2c[nH]c3ccc(Cl)cc23)nc2cc(C(F)(F)F)ccc21 [Embodiment 213, 1-allyl-N-(5-chloro-1H-indol-3-yl)-5-(trifluoromethyl)-1H-benzo[d]imidazol-2-amine] | * * * | * * |
| C#CCn1c(Nc2c[nH]c3ccc(Cl)cc23)nc2cc(C(F)(F)F)ccc21 [Embodiment 214, N-(5-Chloro-1H-indol-3-yl)-1-(pro-2-yl)-5-(trifluoromethyl)-1H-benzo[d]imidazol-2-amine] | * * * | * * * |
| FC(F)(F)c1ccc2c(c1)nc(Nc1c[nH]c3ccc(Cl)cc13)n2CC1CC1 [Embodiment 215, N-(5-Chloro-1H-indol-3-yl)-1-(cyclopropylmethyl)-5-(trifluoromethyl)-1H-benzo[d] imidazol-2-amine] | * * * | * * |
| CN(C)n1c(Nc2c[nH]c3ccc(Cl)cc23)nc2cc(C(F)(F)F)ccc21 [Embodiment 216, N2-(5-Chloro-1H-indol-3-yl)-N1,N1-dimethyl-5-(trifluoromethyl)-1H-benzo[d]imidazole-1,2-diamine] | * * * | * * * |
| CCn1c(Nc2c[nH]c3ccc(Cl)cc23)nc2cc(C(F)(F)F)ccc21 [Embodiment 217, N-(5-Chloro-1H-indol-3-yl)-1-ethyl-5-(trifluoromethyl)-1H-benzo[d]imidazol-2-amine] | * * * | * * |
| CC(C)n1c(Nc2c[nH]c3ccc(Cl)cc23)nc2cc(C(F)(F)F)ccc21 [Embodiment 218, N-(5-Chloro-1H-indol-3-yl)-1-isopropyl-5-(trifluoromethyl)-1H-benzo[d]imidazol-2-amine] | * * * | * * |
| [2H]C([2H])([2H])n1c(Nc2c[nH]c3ccc(Cl)cc23)nc2cc(C(F)(F)F)ccc21 [Embodiment 221, N-(5-Chloro-1H-indol-3-yl)-1-(methyl-d3)-5-(trifluoromethyl)-1H-benzo[d]imidazol-2-mine] | * * * | * * |
| COCCn1c(Nc2c[nH]c3ccc(Cl)cc23)nc2cc(C(F)(F)F)ccc21 [Embodiment 222, N-(5-Chloro-1H-indol-3-yl)-1-(2-methoxyethyl)-5-(trifluoromethyl)-1H-benzo[d]imidazol-2-amine] | * * * | * * |
| OCCn1c(Nc2c[nH]c3ccc(Cl)cc23)nc2cc(C(F)(F)F)ccc21 [Embodiment 223, 2-{2-[(5-chloro-1H-indol-3-yl)amino]-5-(trifluoromethyl)-1H-benzo[d]imidazol-1-yl}ethanol] | * * * | * * |
| FC(F)(F)c1ccc2c(c1)nc(Nc1c[nH]c3ccc(Br)cc13)n2C1CC1 [Embodiment 224, N-(5-bromo-1H-indol-3-yl)-1-cyclopropyl-5-(trifluoromethyl)-1H-benzo[d]imidazol-2-amine] | * * * | * * |
| Cn1c(Nc2c[nH]c3ccc(Cl)cc23)nc2cc(C(F)(F)F)cc(F)c21 [Embodiment 225, N-(5-Chloro-1H-indol-3-yl)-7-fluoro-1-methyl-5-(trifluoromethyl)-1H-benzo[d]imidazol-2-amine] | * * * | * * |
| FC(F)(F)c1ccc2c(c1)nc(Nc1c[nH]c3ccc(Cl)cc13)n2C1COC1 [Embodiment 226, N-(5-Chloro-1H-indol-3-yl)-1-(oxetan-3-yl)-5-(trifluoromethyl)-1H-benzo[d]imidazol-2-amine] | * * | * * |
